From publication PMC7906907, “Targeting STAT3 by a small molecule suppresses pancreatic cancer progression” (Oncogene, 2021) come the findings set out here.

Each structure is given as a SMILES string.

Data set [1] relates to Pan02 cells. The data set is described as follows: EMT markers by immunofluorescence and western blot. Format: cell-based. The note with it: IF and WB, 24 h. The method, then: Fig. 8 N4 reverses EMT phenotype and shapes the microenvironment of PDAC. A IF staining was performed to detected the level of E-cadherin (red) and vimentin (green) after PAN02 treatment with the indicated concentrations of N4 for 24 h. DAPI (blue) was used to stain Nuclei. Scale bar, 20 μm. B Western blot assays were used to examine the expression of E-cadherin, N-cadherin and vimentin after PAN02 treatment with N4 for 24 h. C IHC of vimentin, F4/80 and α-SMA in tumor tissue from orthotopic models. Data represents the mean ± SD; *P < 0.05, **P < 0.01, ***P < 0.001, ****P < 0.0001, n.s. not significant by one-way ANOVA followed by multiple-comparison tests. D Quantification of vimentin, F4/80 and α-SMA in pancreatic tumors from PDAC. Scale bar, 50 μm.
(§1) Western blotting was performed as previously described. Briefly, cells were treated with indicated compounds and then lysed by boiling. […]
Immunofluorescence staining was performed as previously described. […] Images were recorded by confocal microscopy (Leica).
(Immunoblotting shows a protein as a band on a membrane.)

In data set [2] the test system is STAT3 Tyr705 phosphorylation. The data set is described as follows: Western blot of STAT3 activation in pancreatic cancer cells. Format: cell-based. The method, then:
Fig. 2 N4 inhibits STAT3 activation in pancreatic cancer cells. A PANC-1, CAPAN-2, and BXPC-3 cells were treated with the indicated concentrations of N4 for 24 h. Then, p-STAT3 (Y705), p-STAT3 (S727), and STAT3 were detected by western blot assays with glyceraldehyde 3-phosphate dehydrogenase (GAPDH) used as the loading control. B Pancreatic cancer cells were starved in a medium lacking fetal bovine serum (FBS; basic medium) for 24 h, and then pretreated with N4 in basic medium for 24 h. Then, stimulated with IL-6 (20 ng/mL) for 30 min and lysed for western blot analysis using the indicated antibodies. C Expression levels of STAT3 downstream genes were detected by western blot following treatment of PANC-1 and CAPAN-2 cells with N4. D PANC-1 cells were seeded and allowed to attach, and then pretreated with 2 μM of N4 in FBS-free medium for 24 h. The cells were stimulated for 30 min using IL-6 (20 ng/mL). The STAT3 antibody (green) and 4, 6-diamidino-2-phenylindole (DAPI) (blue) was used for staining and STAT3 and the nucleus, respectively. The samples were photographed and analyzed. The scale bar represents 20 μm. E After 24 h treatment with 2 μM N4, PANC-1 cells were stimulated with IL-6 (20 ng/mL) for 30 min, and the cytoplasmic and nuclear extractions were analyzed by western blot. p-STAT3 (Y705) was used to detect STAT3, and GAPDH and H3 were used as the cytoplasm and nucleus internal control, respectively.
as §1

Data set [3] has as its system PAN02-luc. The data set is described as follows: Pancreatic cancer liver metastatic mouse model. In kind it is in vivo, C57BL/6 mice. The note with it: for mice alive: n = 5. As for the experimental part:
C57BL/6 mice were intrasplenically injected with luciferase-expressing PAN02 cells (PAN02-luc) in matrigel and tumor growth was assessed (A) and quantified (B) by bioluminescent imaging weekly. […] C After 4 weeks, mice were sacrificed and livers were imaged. D The body weight of C57BL/6 tumor-bearing mice were measured weekly.
C57BL/6, male, 8-week-old mice were obtained from the Animal Center of East China Normal University. All animal experimental protocols were approved by the Animal Investigation Committee of the Institute of Biomedical Sciences, East China Normal University. PAN02 cells that stably expressed luciferase (PAN02-luc) were embedded in Matrigel (BD Biosciences) and intrasplenically injected into mice. Tumors were allowed to grow for 1 week and treatment of the mice with either compound or control was started after grouping of the mice according to average bioluminescence. The IVIS Imaging System (Xenogen Corporation) was used to monitor pancreatic tumor growth and metastasis. Images and measurements of bioluminescent signals were acquired and analyzed using Living Image and Xenogen software.

Where [4] appears, read: PANC-1, CAPAN-2, BXPC-3 cells, 24 h.

Regarding `COc1cc2c(cc1C(=O)Nc1cccc3cccnc13)CCC1C(C)(C)C(=O)C(C#N)=C[C@]21C` (stereo partly drawn) [N4], the “epithelial and mesenchymal markers” value in data set [1] is “upregulation of E-cadherin, and downregulation of N-cadherin and vimentin”. Further, the “STAT3 Tyr705 phosphorylation” value in data set [2] (setting [4]) is “selectively blocked”. Also, in data set [2] (setting [4]), the “Ser-727 phosphorylation and STAT3 protein expression” value was “no obvious inhibition”. For the same compound, the “SHP2 (PTPase), p-STAT1, p-STAT5, p-extracellular signal-regulated kinase, and p-AKT levels” value in data set [2] (western blots) is on record as “no obvious influence”. For the same compound, in data set [3] (measured weekly), the mice bodyweight result is on record as “no obvious effect”. Further, the “tumor metastasis suppressed compared with the control group” value in data set [3] (week 4, 10 mg/kg/d) is reported as 63.25%; in data set [3] (week 4, 20 mg/kg/d), 81.16%. The mice alive in data set [3] (week 10, 10 mg/kg/d) is 40%; in data set [3] (week 10, 20 mg/kg/d) it was 80%.
